Experiments:
[1] = target: Cyclin-dependent kinase 2 (Homo sapiens, UniProt P24941); experiment: Inhibition of human CDK2
HUVEC [2] = experiment: Antiangiogenic activity in HUVEC assessed as inhibition of VEGF-induced cell proliferation by [3H]thymidine incorporation assay; assay type: functional, cell-based; settings: Homo sapiens
HUVEC [3] = experiment: Antiangiogenic activity in HUVEC assessed as inhibition of bFGF-induced cell proliferation by [3H]thymidine incorporation assay; assay type: functional, cell-based; settings: Homo sapiens
[4] = Antiangiogenic activity in HSMEC assessed as inhibition of VEGF-induced cell proliferation by [3H]thymidine incorporation assay; assay type: functional; settings: Homo sapiens
[5] = Antiangiogenic activity in BRP assessed as inhibition of PDGF BB-induced cell proliferation by [3H]thymidine incorporation assay; assay type: functional; settings: Bos taurus
[6] = Antiangiogenic activity in HUASMC assessed as inhibition of PDGF BB-induced cell proliferation by [3H]thymidine incorporation assay; assay type: functional; settings: Homo sapiens
FaDu [7] = experiment: Antiangiogenic activity in human FADU assessed as inhibition of cell proliferation by [3H]thymidine incorporation assay in presence of fetal calf serum; assay type: functional, cell-based
Calu-6 = experiment: Antiangiogenic activity in human Calu6 assessed as inhibition of cell proliferation by [3H]thymidine incorporation assay in presence of fetal calf serum; assay type: functional, cell-based
HeLa = experiment: Antiangiogenic activity in human HeLa assessed as inhibition of cell proliferation by [3H]thymidine incorporation assay in presence of fetal calf serum; assay type: functional, cell-based
HUVEC [8] = experiment: Antiangiogenic activity in HUVEC assessed as inhibition of VEGF-induced apoptosis by [3H]thymidine incorporation assay; assay type: functional, cell-based; settings: Homo sapiens
[9] = Antiangiogenic activity in HSMEC assessed as inhibition of VEGF-induced apoptosis by [3H]thymidine incorporation assay; assay type: functional, Homo sapiens
HUVEC [10] = experiment: Induction of apoptosis in HUVEC at 50 nM by TUNEL assay (reference value: 2%); assay type: cell-based; settings: human, 0.05 µM
Mus musculus [11] = experiment: Toxicity in human FADU cells xenografted in NMRI nu/nu mouse assessed mortality at 100 mg/kg, po qd for 5 days; assay type: organism-based; parameters: dose 100 mg/kg, route oral; settings: in vivo, 120 h
Mus musculus [12] = experiment: Toxicity in human FADU cells xenografted in NMRI nu/nu mouse assessed weight loss at 100 mg/kg, po qd for 5 days; assay type: organism-based; parameters: dose 100 mg/kg, route oral; settings: in vivo, 120 h
FaDu [13] = experiment: Antitumor activity against human FADU cells xenografted in NMRI nu/nu mouse assessed as inhibition of tumor growth at 50 mg/kg, po qd for 2 days relative to control; assay type: functional
[14] = Plasma concentration in NMRI nu/nu mouse at 50 mg/kg, po after 1 hr; assay type: ADME, organism-based; parameters: dose 50 mg/kg, route oral
[15] = Trough plasma concentration in NMRI nu/nu mouse at 50 mg/kg, po after 24 hrs; assay type: ADME, organism-based; parameters: dose 50 mg/kg, route oral
FaDu [16] = experiment: Antitumor activity against human FADU cells xenografted in NMRI nu/nu mouse assessed as tumor growth at 50 mg/kg, po qd for 5 days relative to control
FaDu [17] = experiment: Antitumor activity against human FADU cells xenografted in NMRI nu/nu mouse assessed as tumor growth at 25 mg/kg, po qd for 5 days relative to control
FaDu [18] = experiment: Antitumor activity against human FADU cells xenografted in NMRI nu/nu mouse assessed as tumor growth at 10 mg/kg, po qd for 5 days relative to control
FaDu [19] = experiment: Antitumor activity against human FADU cells xenografted in NMRI nu/nu mouse assessed as tumor growth at 100 mg/kg, po qd for 5 days relative to control
CAKI-1 [20] = experiment: Antitumor activity against human Caki1 cells xenografted in NMRI nu/nu mouse assessed as tumor growth at 50 mg/kg, po qd for 5 days relative to control
CAKI-1 [21] = experiment: Antitumor activity against human Caki1 cells xenografted in NMRI nu/nu mouse assessed as tumor growth at 10 mg/kg, po qd for 5 days relative to control
CAKI-1 [22] = experiment: Antitumor activity against human Caki1 cells xenografted in NMRI nu/nu mouse assessed as tumor growth at 100 mg/kg, po qd for 5 days relative to control
[23] = Antitumor activity against rat GS-9L cells implanted in syngeneic F344 Fischer rat assessed as inhibition of tumor growth at 50 mg/kg, po qd for 5 days relative to control
[24] = Antitumor activity against rat GS-9L cells implanted in syngeneic F344 Fischer rat assessed as inhibition of tumor growth at 25 mg/kg, po qd for 5 days relative to control
[25] = Antitumor activity against rat GS-9L cells implanted in syngeneic F344 Fischer rat assessed as inhibition of tumor growth at 10 mg/kg, po qd for 5 days relative to control
FaDu [26] = experiment: Antitumor activity against human FADU cells xenografted in NMRI nu/nu mouse assessed as reduction of tumor vessel density at 100 mg/kg, po qd for 5 days by Meca 32 immunohistochemistry image analysis relative to control; parameters: scale not given: the % may be the effect or the level left
FaDu [27] = experiment: Antitumor activity against human FADU cells xenografted in NMRI nu/nu mouse assessed as reduction of PDGFR-beta-positive mural cells at 100 mg/kg, po qd for 5 days by PDGFR-beta immunohistochemistry image analysis relative to control; parameters: scale not given: the % may be the effect or the level left

COC(=O)c1ccc2c(c1)NC(=O)/C2=C(\Nc1ccc(N(C)C(=O)CN2CCN(C)CC2)cc1)c1ccccc1 [NINTEDANIB]
IC50 [1]: > 10 µM | EC50 (HUVEC [2]): 0.009 µM | EC50 (HUVEC [3]): 0.29 µM | EC50 [4]: 0.007 µM | EC50 [5]: 0.079 µM | EC50 [6]: 0.069 µM | EC50 (FaDu [7]): > 4.5 µM | EC50 (Calu-6): > 3.5 µM | EC50 (HeLa): > 3.5 µM | EC50 (HUVEC [8]): < 0.01 µM | EC50 [9]: < 0.01 µM | Activity (HUVEC [10]): 28% | Activity (Mus musculus [11]): Non-toxic | Activity (Mus musculus [12]): Non-toxic | T/C (FaDu [13]): 15% | concentration at 1 h [14]: 1 µM | concentration at 24 h [15]: < 0.008 µM | T/C (FaDu [16]): 27% | T/C (FaDu [17]): 46% | T/C (FaDu [18]): 82% | T/C (FaDu [19]): 11% | T/C (CAKI-1 [20]): 25% | T/C (CAKI-1 [21]): 71% | T/C (CAKI-1 [22]): 16% | T/C [23]: 30% | T/C [24]: 45% | T/C [25]: 74% | Activity (FaDu [26]): 76% | Activity (FaDu [27]): 64%

— ChEMBL document CHEMBL1240338, “BIBF 1120: triple angiokinase inhibitor with sustained receptor blockade and good antitumor efficacy” (Cancer Res, 2008)
